Earlier results, collected in US8338628B2, “Method of synthesizing alkylated bile acid derivatives” (City of Hope, priority 2007, dated 2012).

What was measured:
[1] = background statement
FXR = details: in vivo; recent studies
[2] = biological target: T1, farnesoid X receptor (FXR) (Homo sapiens, UniProt Q96RI1); details: background statement
T1 sequence (Q96RI1 1-486): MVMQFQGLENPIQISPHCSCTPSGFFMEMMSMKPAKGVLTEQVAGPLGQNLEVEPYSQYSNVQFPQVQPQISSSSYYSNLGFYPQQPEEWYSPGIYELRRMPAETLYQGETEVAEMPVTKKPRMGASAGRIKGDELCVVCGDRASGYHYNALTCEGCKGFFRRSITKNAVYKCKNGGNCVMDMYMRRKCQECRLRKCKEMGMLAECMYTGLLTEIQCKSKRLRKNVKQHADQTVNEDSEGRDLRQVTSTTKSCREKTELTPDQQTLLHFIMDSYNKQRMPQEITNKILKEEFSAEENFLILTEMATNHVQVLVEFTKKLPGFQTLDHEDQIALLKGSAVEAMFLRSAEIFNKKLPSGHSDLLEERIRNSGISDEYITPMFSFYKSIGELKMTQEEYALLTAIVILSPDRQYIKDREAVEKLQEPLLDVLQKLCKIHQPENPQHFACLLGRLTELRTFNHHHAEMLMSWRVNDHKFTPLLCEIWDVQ

## CC(C)c1onc(-c2c(Cl)cccc2Cl)c1COc1ccc(/C=C/c2cccc(C(=O)O)c2)c(Cl)c1 [GW4064]
[1]
  pharmacokinetic properties (in words): very poor pharmacokinetic properties
FXR
  HDL-cholesterol: increases HDL-cholesterol
  plasma triglycerides: reduces plasma triglycerides

## CC[C@H]1[C@@H](O)[C@@H]2[C@H](CC[C@]3(C)[C@@H]([C@H](C)CCC(=O)O)CC[C@@H]23)[C@@]2(C)CC[C@@H](O)C[C@@H]12 [Compound 6-ECDCA, 3α,7α-Dihydroxy-6α-ethyl-5β-cholan-24-oic acid]
[1]
  pharmacokinetic properties (in words): improved pharmacokinetic properties relative to GW4064

## C[C@H](CCC(=O)O)[C@H]1CC[C@H]2[C@@H]3[C@H](O)C[C@@H]4C[C@H](O)CC[C@]4(C)[C@H]3C[C@H](O)[C@]12C [cholic acid]
[2]
  FXR activation (in words): activate FXR
